# Values of other authors, collected in patent US20080146534A1, “PHARMACEUTICAL COMPOSITION FOR REDUCING THE RISKS ASSOCIATED WITH CARDIOVASCULAR AND CEREBROVASCULAR DISEASES” (priority 2006, published 2008).
# Settings: at clinical doses
structure (smiles),measurement,setting,value
"O=C1CCc2cc(OCCCCc3nnnn3C3CCCCC3)ccc2N1 [Cilostazol, 6-[4-(1-cyclohexyl-1H-tetrazol-5-yl)butoxy]-3,4-dihydro-2(1H)-quinolinon]",increase in heart rate,,about 7 beats/minute
same,ventricular premature beat (VPB) rate,small increase from 1/hour,4 h⁻¹
